Assay results taken from US10231966B2, “Combination therapy for treating pulmonary hypertension” (priority 2016, dated 2019).
Like-named read-outs stand apart in the source and are kept apart here.

Assays:
[1] = tested on: PDGFRβ isoform, PDGFRα isoform; details: background statement; cited from earlier work
[2] = tested on: rat monocrotaline model of PAH; details: background statement; cited from earlier work
[3] = tested on: patients with advanced PAH; details: background statement; cited from earlier work
[4] = molecular target: PDGFRβ (Homo sapiens, UniProt P09619); details: human lung fibroblasts
Sequence of PDGFRβ (P09619 33-1106): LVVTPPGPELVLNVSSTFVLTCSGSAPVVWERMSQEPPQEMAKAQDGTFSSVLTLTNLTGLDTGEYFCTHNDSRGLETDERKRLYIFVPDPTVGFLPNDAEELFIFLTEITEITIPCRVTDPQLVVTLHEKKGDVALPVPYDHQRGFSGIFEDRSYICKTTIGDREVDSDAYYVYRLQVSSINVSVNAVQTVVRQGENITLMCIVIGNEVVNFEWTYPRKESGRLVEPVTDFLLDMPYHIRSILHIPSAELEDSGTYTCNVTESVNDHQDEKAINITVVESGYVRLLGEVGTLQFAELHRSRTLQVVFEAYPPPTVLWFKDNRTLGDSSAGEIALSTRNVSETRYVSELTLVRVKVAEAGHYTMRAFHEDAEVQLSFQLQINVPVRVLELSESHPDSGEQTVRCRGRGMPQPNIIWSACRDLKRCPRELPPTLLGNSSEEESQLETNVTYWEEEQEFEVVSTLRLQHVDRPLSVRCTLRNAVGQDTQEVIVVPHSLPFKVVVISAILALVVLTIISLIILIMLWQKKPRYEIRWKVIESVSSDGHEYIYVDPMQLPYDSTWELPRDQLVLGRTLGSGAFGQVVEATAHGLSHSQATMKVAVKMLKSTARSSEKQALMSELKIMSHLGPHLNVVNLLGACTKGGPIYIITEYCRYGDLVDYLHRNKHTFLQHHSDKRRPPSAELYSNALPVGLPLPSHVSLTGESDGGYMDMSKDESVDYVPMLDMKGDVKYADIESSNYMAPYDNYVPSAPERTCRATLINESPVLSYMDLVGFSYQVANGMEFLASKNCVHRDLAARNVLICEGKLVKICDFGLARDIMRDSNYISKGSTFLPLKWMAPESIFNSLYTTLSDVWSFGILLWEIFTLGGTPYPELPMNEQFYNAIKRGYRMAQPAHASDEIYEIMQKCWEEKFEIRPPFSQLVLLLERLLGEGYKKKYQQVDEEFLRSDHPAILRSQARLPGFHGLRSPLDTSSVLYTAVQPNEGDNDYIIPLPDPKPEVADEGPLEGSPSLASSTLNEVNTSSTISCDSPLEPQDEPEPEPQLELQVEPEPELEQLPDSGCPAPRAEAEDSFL

[5] = tested on: AAV-PDGFB overexpression SU5416 hypoxia rat model of PH; assay: AAV-PDGFB SU5416 hypoxia study: RVSP, right ventricular hypertrophy, lumen/media ratio; assay type: in vivo
[6] = rat, in vivo, 0.4 mg/kg
[7] = in vivo; details: male, Sprague Dawley, rat
[8] = tested on: PDGFB gene expression; assay: PDGFB lung gene expression (RT-qPCR) in the AAV-PDGFB SU5416 hypoxia rat model; assay type: in vivo; details: RT-qPCR normalized to 18S, 4 weeks treatment
Experimental: Four weeks later, 20 mg/kg of semaxanib (SU5416) was administered using intraperitoneal (i.p.) injection, and the rats were housed in a hypoxia chamber at fraction of inspired oxygen (FiO2) 10% for 3 weeks. […] Daily treatments were administered starting day 2 after removing the rats from the hypoxia chamber and were continued for 4 weeks (28 days). RNA from lung tissue was isolated using TRIzol™ reagent. The RNA concentration was measured using a Nanodrop™ 1000 Spectrophotometer. Equal amounts of RNA of each sample were transcribed to cDNA using a high-capacity cDNA Reverse Transcription kit. Reverse transcription (RT)-qPCR reactions were set up using TaqMan™ Gene Expression Master Mix and TaqMan™ primers/probes for PDGFB and 18S. The gene expression assay was carried out using a QuantStudio™ 6 Flex system. Gene expression was normalized to the expression of 18S, which was used as a housekeeping gene.

[9] = molecular target: T1, pPDGFRβ (Y1021) (Rattus norvegicus, UniProt Q05030); assay: Western blot of pPDGFRβ (Y1021) in lung lysates of rats with pulmonary hypertension after inhaled Compound 1; assay type: in vivo; details: pPDGFRβ (Y1021) vs total PDGFRβ
T1 construct: Lung tissue samples were homogenized in pH 7.4 lysis buffer; from tissue; host or cells: rat lung (male SD rats)
T1 sequence (Q05030 32-1097): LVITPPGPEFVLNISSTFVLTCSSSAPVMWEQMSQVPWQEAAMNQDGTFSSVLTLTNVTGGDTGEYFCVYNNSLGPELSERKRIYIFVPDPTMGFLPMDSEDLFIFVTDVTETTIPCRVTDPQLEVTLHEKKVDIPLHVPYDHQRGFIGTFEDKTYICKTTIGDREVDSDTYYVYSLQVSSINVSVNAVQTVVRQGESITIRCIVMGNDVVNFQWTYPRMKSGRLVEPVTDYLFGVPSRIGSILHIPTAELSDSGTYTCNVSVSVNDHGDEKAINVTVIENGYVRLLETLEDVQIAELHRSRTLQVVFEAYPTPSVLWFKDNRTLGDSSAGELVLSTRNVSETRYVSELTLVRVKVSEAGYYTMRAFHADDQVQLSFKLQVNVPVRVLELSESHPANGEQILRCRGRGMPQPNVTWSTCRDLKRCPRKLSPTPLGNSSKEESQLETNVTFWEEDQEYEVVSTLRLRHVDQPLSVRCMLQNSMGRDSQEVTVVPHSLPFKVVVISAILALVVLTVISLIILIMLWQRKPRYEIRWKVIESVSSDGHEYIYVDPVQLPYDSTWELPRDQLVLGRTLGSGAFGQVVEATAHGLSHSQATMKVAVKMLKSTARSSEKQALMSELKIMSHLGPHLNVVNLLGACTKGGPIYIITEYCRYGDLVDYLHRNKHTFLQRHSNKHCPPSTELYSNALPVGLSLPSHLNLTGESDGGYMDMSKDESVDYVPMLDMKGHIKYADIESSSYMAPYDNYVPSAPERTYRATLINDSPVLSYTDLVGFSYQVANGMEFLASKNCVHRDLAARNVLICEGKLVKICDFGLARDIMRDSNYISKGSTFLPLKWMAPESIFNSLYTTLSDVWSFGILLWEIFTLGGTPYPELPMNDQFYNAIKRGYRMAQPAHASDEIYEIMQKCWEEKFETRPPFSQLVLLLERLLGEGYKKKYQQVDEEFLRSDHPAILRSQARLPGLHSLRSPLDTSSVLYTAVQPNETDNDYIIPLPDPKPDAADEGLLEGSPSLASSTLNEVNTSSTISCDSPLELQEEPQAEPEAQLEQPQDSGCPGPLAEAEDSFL

[10] = molecular target: T2, phosphorylated PDGFRα (Y751) (Rattus norvegicus, UniProt P20786); assay: Immunohistochemistry of lung sections for pPDGFRα in the AAV-PDGFB SU5416 hypoxia model; assay type: in vivo; details: vs V-V and TA-V
T2 construct: from tissue; host or cells: rat lung sections (male SD rats)
T2 sequence (P20786 24-1088): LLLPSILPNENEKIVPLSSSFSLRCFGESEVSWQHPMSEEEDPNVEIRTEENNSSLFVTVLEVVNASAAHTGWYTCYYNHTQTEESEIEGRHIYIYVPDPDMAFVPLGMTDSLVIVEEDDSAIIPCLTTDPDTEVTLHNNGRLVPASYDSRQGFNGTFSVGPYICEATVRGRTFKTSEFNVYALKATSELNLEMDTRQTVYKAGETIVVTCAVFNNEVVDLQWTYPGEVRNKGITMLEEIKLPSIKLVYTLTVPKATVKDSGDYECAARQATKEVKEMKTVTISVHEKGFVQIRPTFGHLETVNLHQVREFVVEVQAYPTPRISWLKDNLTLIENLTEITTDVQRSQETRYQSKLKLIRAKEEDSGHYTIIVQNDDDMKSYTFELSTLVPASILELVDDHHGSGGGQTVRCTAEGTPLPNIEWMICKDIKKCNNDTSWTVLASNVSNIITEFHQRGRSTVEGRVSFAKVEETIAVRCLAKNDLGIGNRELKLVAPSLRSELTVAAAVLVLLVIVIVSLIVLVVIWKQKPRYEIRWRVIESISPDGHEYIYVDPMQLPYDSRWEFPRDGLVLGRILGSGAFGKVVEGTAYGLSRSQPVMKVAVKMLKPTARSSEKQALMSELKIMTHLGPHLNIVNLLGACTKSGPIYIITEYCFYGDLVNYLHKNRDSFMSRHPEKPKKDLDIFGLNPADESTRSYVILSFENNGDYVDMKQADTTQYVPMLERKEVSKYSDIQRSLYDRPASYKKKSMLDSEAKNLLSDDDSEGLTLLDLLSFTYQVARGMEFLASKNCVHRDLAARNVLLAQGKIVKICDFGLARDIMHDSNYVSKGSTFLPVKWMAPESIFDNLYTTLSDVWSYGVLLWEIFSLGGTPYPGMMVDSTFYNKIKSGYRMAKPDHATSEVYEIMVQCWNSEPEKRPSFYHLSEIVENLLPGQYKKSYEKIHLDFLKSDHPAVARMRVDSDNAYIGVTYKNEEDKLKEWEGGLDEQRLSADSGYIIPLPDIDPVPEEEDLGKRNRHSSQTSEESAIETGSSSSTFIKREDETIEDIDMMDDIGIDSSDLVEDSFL
Experimental: (§1) Four weeks later, 20 mg/kg of semaxanib (SU5416) was administered using intraperitoneal (i.p.) injection, and the rats were housed in a hypoxia chamber at fraction of inspired oxygen (FiO2) 10% for 3 weeks. […] Daily treatments were administered starting day 2 after removing the rats from the hypoxia chamber and were continued for 4 weeks (28 days). Antigen retrieval was performed using heat-induced epitope retrieval. Immunohistochemistry of lung sections was performed for PDGFBB, total PDGFRα, total PDGFRβ, pPDGFRα, and pPDGFRβ. Signal detection was performed with an EXPOSE horseradish peroxidase/diaminobenzidine (HRP/DAB) kit.

[11] = molecular target: T1, pPDGFRβ (Y1021); assay: Western blot of lung pPDGFRβ (Y1021) in the AAV-PDGFB SU5416 hypoxia model; assay type: in vivo; details: vs V-V and TA-V, total PDGFRβ and β actin controls
Experimental: Four weeks later, 20 mg/kg of semaxanib (SU5416) was administered using intraperitoneal (i.p.) injection, and the rats were housed in a hypoxia chamber at fraction of inspired oxygen (FiO2) 10% for 3 weeks. […] Daily treatments were administered starting day 2 after removing the rats from the hypoxia chamber and were continued for 4 weeks (28 days). […] Lysates were normalized and separated on 7.5% or 12% polyacrylamide gels and transferred to nitrocellulose membranes. After blocking, the membranes were probed with one of the following antibodies: anti-PDGFRβ, anti-phospho ([…])-PDGFRβ, pMYPT, MYPT, pSTAT3, or STAT3. The samples were incubated overnight on a shaker, followed by a 1 hour incubation with secondary antibodies conjugated with HRP. Bound antibodies were detected by chemiluminescence using an enhanced chemiluminescence (ECL) detection system, and quantified by densitometry using a Licor C-Digit® Blot Scanner.

[12] = molecular target: T3, phosphorylated PDGFRβ (Y1021) (Rattus norvegicus, UniProt Q05030); assay: Immunohistochemistry of lung sections for pPDGFRβ in the AAV-PDGFB SU5416 hypoxia model; assay type: in vivo; details: vs V-V and TA-V
T3 construct: from tissue; host or cells: rat lung (male SD rats)
T3 sequence (Q05030 32-1097): as the sequence (Q05030 32-1097) above
Experimental: as §1

[13] = inhaled or intranasal, 0.4 mg/kg

Cc1ccc(NC(=O)c2ccc(CN3CCN(C)CC3)cc2)cc1Nc1nccc(-c2cccnc2)n1 [imatinib]
potency against PDGFR isoforms [1]: less potent against the PDGFRβ isoform than the PDGFRα isoform
right ventricular systolic pressure (RVSP) [2]: decreases
survival [2]: improves survival
cardiopulmonary hemodynamics [3]: improves

COc1ccc(-c2cncc(N[C@@H](C)c3cccc(NC(=O)c4cncc(C)c4)c3)n2)cc1OC [Compound 1]
fold more potent than imatinib at inhibiting PDGFB-stimulated phosphorylation of PDGFRβ [4]: about 2.5 fold
lumen/media ratio of pulmonary arterioles ([5]; H&E lung sections, four weeks treatment, mean±SEM): 0.76±0.04
AVG RVSP ([5]; Table 4, four weeks treatment): 44.30 mm Hg
% Reduction RVSP ([5]; Table 4, vs V-V): 29%
decrease of RV/(LV+IVS) ratio compared to the vehicle (V-V) group ([5]; four weeks treatment): 25%
decrease of RVSP compared to vehicle (V-V) ([5]; four weeks treatment): 29%
RVSP ([5]; four weeks, tadalafil 10 mg/kg and ambrisentan 10 mg/kg gavage once daily, Compound 1 0.6 mg/kg inhaled twice daily, mean±SEM): 44.3±1.9 mm Hg
right ventricular hypertrophy, RV/(LV+IVS) ([5]; ratio of RV weight to LV plus interventricular septum weight, four weeks treatment, mean±SEM): 0.36±0.01
maximum arterial and venous average concentrations ([6]; male, Sprague Dawley): about 1 μg/mL
time after administration at which average arterial and venous concentrations reached zero ([6]; male, Sprague Dawley): about 400 minutes
AUC(0-inf) ([6]; inhaled or intranasal): 25403.578 µg·min/g
AUC(0-t) ([6]; inhaled or intranasal): 23583.976 µg·min/g
Kp ([7]; 0.4 mg/kg): 20 to 80
AUC(0-inf) [7, 13]: 2130 ng·h/mL
AUC(0-t) [7, 13]: 1940 ng·h/mL
half-life ([7]; inhaled or intranasal, terminal half-life in lung (t1/2β)): 6.43 h
half-life ([7]; inhaled or intranasal, terminal half-life in plasma): 2.08 h
effect on levels of PDGFB gene expression [8]: did not affect levels of PDGFB gene expression significantly
pPDGFRβ levels in lung compared to animals treated with the vehicle [9]: decreased pPDGFRβ levels
phosphorylated PDGFRα (Y751) in the lungs [10]: decrease
pPDGFRβ (Y1021) in the lungs [11]: decreases
phosphorylated PDGFRβ (Y1021) in the lungs [12]: decrease
